Experimental data: ChEMBL document CHEMBL1201862, “PubChem BioAssay data set” (2004)
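96-well plates; 48 h exposure; 5 concentrations. Endpoints by linear interpolation between flanking doses. Not reached: highest tested concentration assigned. GI50 marks 50% less growth.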 Calls of active or inactive are those of the source. Cut-off read from the data, not from the text of the source: active = GI50 up to about 1.1 µM and inactive = higher.

What was measured:
Assay in all cases: NCI anticancer screen, dose series, 48 h
LOX IMVI = tested on: LOX IMVI
MDA-N = tested on: MDA-N
M14 = tested on: M14
A498 = tested on: A498
CCRF-CEM = tested on: CCRF-CEM
MDA-MB-435 = tested on: MDA-MB-435
HCC 2998 = tested on: HCC 2998
OVCAR-5 = tested on: OVCAR-5
HCT-116 = tested on: HCT-116
SK-MEL-2 = tested on: SK-MEL-2
EKVX = tested on: EKVX
SF-295 = tested on: SF-295
NCI/ADR-RES = tested on: NCI/ADR-RES
K562 = tested on: K562
NCI-H522 = tested on: NCI-H522
OVCAR-4 = tested on: OVCAR-4
TK-10 = tested on: TK-10
NCI-H23 = tested on: NCI-H23
ACHN = tested on: ACHN
A549 = tested on: A549
MCF7 = tested on: MCF7
PC-3 = tested on: PC-3
SNB-19 = tested on: SNB-19
SK-MEL-5 = tested on: SK-MEL-5
HL-60 = tested on: HL-60
IGROV-1 = tested on: IGROV-1
SW-620 = tested on: SW-620
HCT-15 = tested on: HCT-15
NCI-H226 = tested on: NCI-H226
UACC-62 = tested on: UACC-62
786-0 = tested on: 786-0
SK-MEL-28 = tested on: SK-MEL-28
SN12C = tested on: SN12C
SF-268 = tested on: SF-268
HOP-92 = tested on: HOP-92
RPMI-8226 = tested on: RPMI-8226
U-251 = tested on: U-251
OVCAR-3 = tested on: OVCAR-3
SNB-75 = tested on: SNB-75
Hs-578T = tested on: Hs-578T
T47D = tested on: T47D
KM12 = tested on: KM12
UO-31 = tested on: UO-31
NCI-H460 = tested on: NCI-H460
UACC-257 = tested on: UACC-257
MDA-MB-231 = tested on: MDA-MB-231
HT-29 = tested on: HT-29
SK-OV-3 = tested on: SK-OV-3
OVCAR-8 = tested on: OVCAR-8
DU-145 = tested on: DU-145
Malme-3M = tested on: Malme-3M
SF-539 = tested on: SF-539
RXF 393 = tested on: RXF 393
COLO 205 = tested on: COLO 205
BT-549 = tested on: BT-549
CAKI-1 = tested on: CAKI-1
HOP-62 = tested on: HOP-62

Measured: GI50

CC1CCC2(O)C3(C)CC4(O)OC2(C1O)C1(O)C3(O)C(OC(=O)c2ccc[nH]2)C(O)(C(C)C)C41C (configuration not stated)
> 100 µM: HCT-15
inactive: LOX IMVI > 100 µM | MDA-N > 100 µM | M14 > 100 µM | A498 > 100 µM | CCRF-CEM > 100 µM | MDA-MB-435 > 100 µM | HCC 2998 > 100 µM | OVCAR-5 > 100 µM | HCT-116 > 100 µM | SK-MEL-2 > 100 µM | EKVX > 100 µM | SF-295 > 100 µM | NCI/ADR-RES > 100 µM | K562 > 20.9 µM | NCI-H522 > 100 µM | OVCAR-4 > 100 µM | TK-10 > 100 µM | NCI-H23 > 100 µM | ACHN > 100 µM | A549 > 100 µM | MCF7 > 100 µM | PC-3 > 100 µM | SNB-19 > 100 µM | SK-MEL-5 > 100 µM | HL-60 > 65.8 µM | IGROV-1 > 100 µM | SW-620 > 100 µM | NCI-H226 > 100 µM | UACC-62 > 100 µM | 786-0 > 100 µM | SK-MEL-28 > 100 µM | SN12C > 100 µM | SF-268 > 31.6 µM | HOP-92 > 100 µM | RPMI-8226 > 100 µM | U-251 > 100 µM | OVCAR-3 > 100 µM | SNB-75 > 100 µM | Hs-578T > 100 µM | T47D > 100 µM | KM12 > 100 µM | UO-31 > 100 µM | NCI-H460 > 100 µM | UACC-257 > 100 µM | MDA-MB-231 > 100 µM | HT-29 > 100 µM | SK-OV-3 > 100 µM | OVCAR-8 > 100 µM | DU-145 > 100 µM | Malme-3M > 100 µM | SF-539 > 100 µM | RXF 393 > 100 µM | COLO 205 > 100 µM | BT-549 > 100 µM | CAKI-1 > 100 µM | HOP-62 > 100 µM
